Experimental data from patent publication US10300107B2, “Compositions and methods for CaMKII inhibitors and uses thereof” (THE REGENTS OF THE UNIVERSITY OF COLORADO, priority 2007, dated 2019).
“Also recorded” adds a separate entry of the source. Where no end group is shown, it is not given here.

Experiments:
[1] = tested on: Langerhans' islets; assay: Glucose-induced insulin secretion from isolated Langerhans' islets; assay type: cell-based, rat; details: 11 mM glucose; EGTA 0.5 mM, KN93 10 μM, antCN27 5 μM, tatCN21 5 μM
Description: Insulin secretion. Langerhans' islets acutely isolated from adult male Wistar rats (Harlan) were obtained. […] Inhibitors or EGTA were added 30 min before stimulation. Insulin secreted into the medium during 90 min stimulation was measured using an ELISA kit (CrystalChem).

[2] = target: T1, CaMKII (Homo sapiens, UniProt Q9UQM7); assay: CaMKII auto- and protein-phosphorylation (MAP2, T286, T305; immuno-blot); assay type: biochemical; details: for CaMKII T286 auto-phosphorylation: CN peptides 1-5 μM; for CaMKII T286 auto-phosphorylation / CaMKII T305 auto-phosphorylation: KN93 10 μM; for CaMKII T305 auto-phosphorylation: CN21 5 μM
T1 construct: made in house; host or cells: baculovirus/Sf9 cells
Description: CaMKII auto- and protein-phosphorylation. 10 nM MAP2 (˜140 nM phosphorylation sites) was used instead of substrate peptide, and reaction times were 5 min, unless indicated otherwise. CaMKII concentration was 100 nM subunits (=8.3 nM holoenzymes). Auto- and MAP2-phosphorylation were assessed by Immuno-blot analysis previously derived (Bayer et al., 2002, incorporated herein by reference) with phospho-T286- or -T305-specific antibodies (1:500; PhosphoSolutions) and an anti-phospho-Thr antibody (1:500; Zymed), respectively. Total CaMKIIα was detected with CBα2 antibody (1:2000; GIBCO). Protein were separated on 10% poly-acrylamid SDS Gels, and electro-blotted onto “Protran” 0.2 μm pore nitrocelluse filters (e.g. Schleicher & Schull) or onto PVDF filters (e.g. Perkin Elmer). Alternatively, for quantitative analyses, a vacuum-driven slot-blot manifold (e.g. Schleicher & Schull) was used for transfer onto PVDF membranes. PVDF membranes were air-dried for 15 min, then wetted in Methanol. Blots were blocked in 5% milk in TBS-T (Tris-buffered saline pH 7.6 with 0.1% Tween-20). Antibodies were incubated for 45-60 min at room temperature in 2.5% milk in TBS-T; for the anti-phospho-T305 antibody, 2.5% BSA was used instead. After secondary antibody incubation (anti-mouse or anti-rabbit horseradish peroxidase conjugate; Amersham; 1:4000), detection was done using the “Western Lightning” system (Perkin Elmer) and exposure to “Hyperfilm” (Amersham). For quantitative analysis, chemoluminescence was captured using a ChemiImager 4400 imaging system (Alpha Innotek) instead of film. Only non-saturated images were analyzed, using AlphaEase software.

[3] = target: T1, CaMKII; assay: CaMKII self-association in vitro; assay type: biochemical
Description: (§1) Stimulated CaMKII activity was assessed using purified CaMKII, [γ^32P]ATP, and the CaMKII substrate, syntide2. Reaction was initiated by addition of calcium and calmodulin. To measure autonomous activity, CaMKII was pre-autophosphorylated by incubation with calcium and calmodulin, which was then chelated by addition of EDTA prior to adding the kinase to syntide2 and [γ^32P]ATP. […] To measure self-association, purified CaMKII was incubated for five minutes with 1mM ADP, calcium and calmodulin, and the appropriate inhibitor. The reaction mixture was then centrifuged to pellet the self-associated kinase. The supernatant (S) was removed and saved and the pellet (P) was resuspended. Both were then resolved by SDS-PAGE and western-blotted for CaMKII. Self-associated kinase is found in the pellet.

[4] = tested on: CaMKII; assay type: biochemical
Description: (§2) CaMKII activity assays. Standard CaMKII assays were done for 1 min at 30° C. previously described, with 20 nM CaMKII (subunit, not holoenzyme concentration), 50 mM PIPES pH 7.2, 0.1 mg/ml BSA, 10 mM MgCl2, 100 μM [γ-^32P] ATP (˜1 Ci/mmol), 1 mM CaCl2, 1-2 μM CaM, and 30-60 μM AC2 peptide (or syntide2). The reactions were spotted onto Whatman P81 phosphocellulose paper rectangles (˜2×2.5 cm). To remove free radioactivity, the paper rectangles were rinsed and washed for 30 min under agitation in 0.5% phosphoric acid or water. […] Radioactivity of the bound peptides was quantified in a Beckman 6000TA scintillation counter by the Cherenkov method. Any changes of the standard protocol were done as indicated. For assays of the GFP-CaMKIIα mutants, kinase amounts were normalized by GFP fluorescence in the extract, and total protein was adjusted with Cos-7 extracts.

[5] = tested on: hippocampal and cortical cultures; assay: Glutamate induced neuronal cell death measured by LDH release; assay type: cell-based, rat
Description: In another example, neuronal cell death is measured by LDH release. In this exemplary method, glutamate was used to induce neuronal cell death, A portion of CaMKIIN was fused to a cell penetrating molecule to generate tatCN21a construct.

[6] = target: calmodulin (CaM) (Homo sapiens, UniProt P0DP23); assay: Binding to calmodulin (slot blot, blot overlay, TA-CaM competition with CBD)
Description: TA-labeled CaM represents reduced fluorescence after binding to CaMKII or its CaM binding domain (CBD; −0.05 nM kD for CaM^5; see also FIG. 9G).
Measured was AC2 phosphorylation as described^4. Error bars show s.e.m.

[7] = tested on: 10DIV hippocampal neurons; assay: NMDA induced cell death; assay type: cell-based; details: NMDA plus CNQX 5 minutes, assayed 24 hours after insult
Description: Neurons were co-transfected with siRNA or non-targeting RNA (NT) at 8DIV and were assayed at day 10. […] Cells were treated with 300 mM NMDA plus 50 mM CNQX (an AMPAR inhibitor) for 5 minutes and cell death was assayed 24 hours after insult. […] Increased AMPAR expression is thought to lead to increased cell death. Thus, by inducing cell death with NMDA and an AMPAR inhibitor, the AMPAR component was reduced.

[8] = target: T1, CaMKII; assay: Autonomous CaMKII activity (pre-autophosphorylated CaMKII); assay type: biochemical
Description: as §1

[9] = target: T2, CaMKII binding to GST-NR2B-c (Homo sapiens, UniProt Q9UQM7); assay: Ca2+/CaM-induced CaMKII binding to immobilized GST-NR2B-c; details: Western blot of eluted CaMKII
T2 construct: made in house; host or cells: CaMKII: baculovirus/Sf9; GST-NR2B-c and CaM: bacteria
Description: CaMKII binding to NR2B-c was assessed as previously described. Briefly, GST-NR2B-c was immobilized on anti-GST coated microtiter plates, then overlaid with 100 nM CaMKII in presence of Ca^2+/CaM and 1 or 5 μM of various CN peptides. After extensive wash, protein was eluted from the plates by boiling in SDS-loading buffer. Eluted CaMKII was detected by Western-blot as described above.

[10] = tested on: CaMKII; assay: Kinase panel (kinase profiling service): CaMKII; assay type: biochemical
[11] = target: CaMKI (Homo sapiens, UniProt Q14012); assay: CaMKI activity / inhibition; assay type: biochemical
Chain of CaMKI (Q14012 whole entry, species assumed): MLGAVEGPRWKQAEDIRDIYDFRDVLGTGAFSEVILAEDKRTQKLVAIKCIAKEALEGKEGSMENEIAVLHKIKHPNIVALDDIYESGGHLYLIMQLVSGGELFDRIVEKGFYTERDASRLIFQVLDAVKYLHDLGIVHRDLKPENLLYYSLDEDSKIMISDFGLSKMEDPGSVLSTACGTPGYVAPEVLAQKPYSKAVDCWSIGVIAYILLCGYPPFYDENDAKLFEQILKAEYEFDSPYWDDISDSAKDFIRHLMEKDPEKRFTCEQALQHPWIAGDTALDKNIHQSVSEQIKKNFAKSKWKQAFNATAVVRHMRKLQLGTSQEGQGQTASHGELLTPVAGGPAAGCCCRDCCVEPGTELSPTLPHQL
Excerpt: For curve fit, the Hill coefficient was set as 1.

[12] = tested on: hippocampal neurons; assay: Imaging of neuronal filopodia motility; assay type: cell-based, rat; details: 20 min incubation
Description: In another example, motility of hippocampal neurons was analyzed. […] Images of GFP expressing hippocampal neurons (5-6 days in vitro) were acquired at 30° C. in 20 s intervals in order to assess motility.
Imaging of neuronal filopodia motility was done similarly as previously described. Hippocampal cultures were prepared from newborn Sprague Dawley rats (Harlan) as previously described, plated onto poly-D-lysine coated glass bottom dishes (MatTek) at a density of ˜2.5×10^6 cells/cm^2 and maintained in Neurobasal A medium with penicillin/streptomycin (50 units/ml), glutamax (2 mM) and B27 supplement (Invitrogen). […] After 5 days in vitro, neurons were transfected with a GFP expression construct (Clonetech) using lipofectamine 2000 (Invitrogen), as described. On the next day neurons were imaged in culture medium on for example, a Zeiss Axiovert 200M systems equipped with a 40× oil immersion objective, Cool Snap HQ CCD camera (Roeper Scientific), Xenon lamp LB-LS/17 (Sutter Instruments) and climate control set to 30° C. and 5% CO2. Fluorescence Images were acquired and analyzed using SlideBook software (Intelligent Imaging Innovations). 16 images were taken in 20 s time intervals, at 100 ms exposure time and bin factor 2. Subtraction image (Δ image) stacks were generated by subtracting one stack (first image deleted) from its duplicate (last image deleted). […]

[13] = tested on: CaMKII T-site mutants W237R and 1205K; assay: Kinase assay with GFP-CaMKIIα T-site mutants; assay type: biochemical; details: substrate syntide2
Excerpt: In another example, FIG. 3. […] FIG. 3A represents a model of CaMKII kinase domain (Rosenberg et al., 2005) with the substrate binding S-site (indicated), the T286-region binding T-site (indicated), and the regulatory region (shown as ribbon). The arrow indicates the proposed orientation of CN21a binding to the T-site, when the regulatory region is displaced after activation. […] Results are normalized to maximal kinase activity without inhibitor. Error bars show s.e.m. […] Bound CaMKII was eluted and detected by Western blot.
as §2

[14] = target: T1, CaMKII; assay: CaMKII phosphorylation of crude liver extracts or GST-NR2B-c (autoradiography); assay type: biochemical; details: 5 μM
Description: Crude liver extracts or NR2B-c were phosphorylated with 100 nM autophosphorylated CaMKII, 2 μM CaM and 40 μM [γ-^32P]-ATP (˜2 Ci/mmole). Pre-auto-phosphorylation (of 300 nM CaMKII) was done for 5 min on ice, in presence of 3 mM CaCl2, 6 μM CaM and 120 μM unlabelled ATP. After addition of [γ-^32P]-ATP and inhibitors as indicated, 2 min reactions at 30° C. were started by addition of substrate protein extract (⅓^rd to 1/12th of total reaction volume), and stopped with 25 mM EDTA. Phosphorylation was detected by autoradiography after gel electrophoresis.

[15] = tested on: other kinases of the panel (CaMKIV, PKA, PKCα, JNK1α1, MAPK1, raf); assay type: biochemical; details: 5 μM peptide
Description: Kinase panels. A panel of different kinases was tested utilizing a kinase profiling service (Upstate Biotechnology). 40 min reactions at room temperature contained 0.1% BSA and were started by addition of 10 mM MgAcetate and [γ-^33P-ATP], stopped by 0.1% phosphoryic acid, spotted on filter mats, and washed 3×5 min in 75 mM phosphoric acid and 1× in methanol prior to drying and scintillation counting. CaMKII and IV were activated by 5 mM CaCl2 and 1.7 μM CaM in 40 mM Hepes pH 7.4; substrate was 30 μM […] (SEQ ID NO:22). Buffers and substrates for the other kinases are stated in brackets: PKA (8 mM MOPS pH 7, 0.2 mM EDTA; 30 μM Kemptide), PKCα (20 mM Hepes pH 7.2, 0.3% Triton X-100, 0.1 mg/ml phosphatidylserine, 10 μg/ml diacylglycerol; 0.1 mg/ml histone H1), JNK1α1 (50 mM Tris pH 7.5, 0.1 mM EGTA, 0.1% β-mercapto-ethanol; 3 μM ATF), MAPK1 and raf (25 mM Tris, pH 7.5, 0.02 mM EGTA; 250 μM proprietary substrate and 0.66 mg/ml myelin basic protein, respectively). Reactions in presence of 5 μM CN21a were done in duplicate, and normalized to four parallel reactions without inhibitor.

[16] = target: T3, CaM dissociation from CaMKII (Homo sapiens, UniProt Q9UQM7); assay: TA-CaM dissociation from CaMKII; assay type: binding; details: 5 μM; 150 nM CaMKII, 30 nM TA-CaM
T3 construct: made in house; host or cells: baculovirus/Sf9 cells (CaMKII)
Description: TA-CaM dissociation was assessed by increased TA-CaM (30 nM) fluorescence after dissociation from CaMKII or its CaM-binding domain (CBD) (150 nM) during a chase with unlabeled CaM (60 μM). Buffer contained 50 mM Hepes pH 7.4, 150 mM KCl, 2 mM MgCl2, 2 mM MgADP, 2 mM CaCl2, and 0.1 mg/ml BSA. Fluorescence was measured in a time scan (1 sec samples) at 365 nm excitation and 415 nm emission wavelength on a spectro-fluorometer (Fluorolog3; Horiba Jobin Yvon) and was corrected for photobleach (FIG. 16).

Substance: tatCN21: CN21 fused to the cell penetrating tat sequence (YGRKKRRQRRRKRPPKLGQIGRSKRVVIEDDR)
- glucose-induced insulin secretion [1]: inhibited
- MAP2 (substrate) phosphorylation by CaMKII ([2]; 1-5 μM peptide): blocked MAP2
- CaMKII T286 auto-phosphorylation [2]: not T286 phosphorylation
- CaMKII self-association in vitro [3]: inhibited
- CaMKII-mediated AC2/AC3 phosphorylation at varying CaM concentrations ([4]; 1 μM peptide): strongly inhibited
- calcium and calmodulin stimulated CaMKII activity ([4]; substrate syntide2): inhibit calcium and calmodulin stimulated CaMKII activity
- glutamate induced cell death ([5]; 7DIV cortical, added 1-6 hours post insult): inhibits glutamate induced cell death
- glutamate induced neuronal cell death ([5]; added 1 h after the insult): protective also when added 1 h after the insult
- glutamate induced neuronal cell death ([5]; added 1 h after the insult, listed as tatCN21a): also when added 1h after the insult
- glutamate induced neuronal cell death ([5]; present during the insult): reduce by half
- glutamate induced neuronal cell death ([5]; present during the insult, listed as tatCN21a): inhibited glutamate induced neuronal cell death
- competition with CBD for binding of TA-labeled CaM [6]: did not show any competition and not
- NMDA induced cell death [7]: reduces NMDA-induced cell death
- autonomous CaMKII activity [8]: inhibits autonomy; also recorded: blocks not only stimulated but also autonomous CaMKII activity
- CaMKII binding to immobilized GST-NR2B-c / NR2B [9]: efficiently blocked
- CaMKII binding to immobilized GST-NR2B-c / NR2B ([9]; listed as TatCN21): inhibited binding
- CaMKII activity in kinase panel ([10]; 1 μM peptide): completely blocked CaMKII activity
- CaMKII activity in kinase panel ([10]; 5 μM peptide): blocked CaMKII activity
- effect on CaMKI activity [11]: dramatically reduces CaMKI activity
- motility in hippocampal neurons [12]: inhibits motility in hippocampal neurons

Substance: KRPPKLGQIGRSKRVVIEDDR [CN21]
- activity of CaMKII T-site mutants W237R and 1205K compared to GFP-CaMKIIα wild type [13]: significantly less affected
- CaMKII T305 auto-phosphorylation [2]: blocked T305
- CaMKII T305 auto-phosphorylation ([2]; listed as CN21a): blocks
- CaMKII T286 auto-phosphorylation [2]: no significant effect
- CaMKII T286 auto-phosphorylation ([2]; listed as CN21a): not T286 autophosphorylation
- inhibition of CaMKII isoforms α and β [4]: inhibit both major brain CaMKII isoforms, α and β
- inhibitory potency on CaMKII activity ([4]; CN truncation peptides, substrate peptides AC2 or syntide 2, listed as CN21a): contains the full inhibitory potency; also recorded: full inhibitory effect
- IC50 ([4]; phosphorylation of syntide 2, read-out: IC50 of CaMKII inhibition): ~0.1 µM
- mechanism of CaMKII inhibition ([4]; versus substrate AC2, Lineweaver-Burk plot): competitive with AC2
- CaMKII phosphorylation of bacterially expressed GST-NR2B-c [14]: blocks CaMKII phosphorylation
- CaMKII phosphorylation of crude liver protein extracts [14]: blocks CaMKII phosphorylation
- activity of the other kinases of the panel [15]: not affected
- CaMKII binding to immobilized GST-NR2B-c / NR2B [9]: efficiently blocked
- CaMKII activity in kinase panel ([10]; 5 μM peptide): completely blocked
- CaM dissociation from CaMKII [16]: slowed down CaM dissociation from CaMKII
- effect on CaMKI activity [11]: no significant effect
